Assay results as given in ChEMBL document CHEMBL1201862, “PubChem BioAssay data set” (2004).
Calls of active or inactive are those of the source.

How the values were obtained:
[1] = target: Ras and Rab interactor 1/Tyrosine-protein kinase ABL1 (Homo sapiens, UniProt P00519+Q13671); format: functional;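 note: biochemical TR-FRET dose-response test measuring inhibition of binding between Rin1 and Abl proteins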
P388/ADR = test: cells; format: functional; details: Mus musculus
SN12K1 = test: cells; format: functional; details: Homo sapiens
[2] = target: T1, Carboxy-terminal domain RNA polymerase II polypeptide A small phosphatase 1 (Homo sapiens, UniProt Q9GZU7); test: inhibitors of CTDSP1, concentration-response testing, biochemical assay, absorbance-based, actives from ultra-high-throughput screening (AID 540297); format: functional
T1 sequence (Q9GZU7 whole entry): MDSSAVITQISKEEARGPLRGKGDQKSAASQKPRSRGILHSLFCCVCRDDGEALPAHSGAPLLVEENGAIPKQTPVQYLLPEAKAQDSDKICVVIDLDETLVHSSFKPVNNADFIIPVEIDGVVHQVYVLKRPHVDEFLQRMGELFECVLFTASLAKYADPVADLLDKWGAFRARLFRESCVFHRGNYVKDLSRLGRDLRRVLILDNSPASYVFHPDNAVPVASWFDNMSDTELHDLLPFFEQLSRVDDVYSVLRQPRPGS

[3] = tested on: Streptococcus sp. 'group A'; test: growth inhibition of control SK(-) GAS strain, dose response, counter-screen for streptokinase expression inhibitor project, luminescence, kanamycin, BacTiterGlo, confirmation (AID 1900); format: functional, organism-based
Streptokinase A = target: T2, Streptokinase A (Streptococcus pyogenes serotype M1, UniProt P10520); test: S. pyogenes streptokinase expression inhibitors, potency, dose response, plasminogen activation absorbance, OD405 (AID 1914); format: functional, Streptococcus pyogenes M1 GAS;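 note: secreted streptokinase activity via plasminogen activation per viability signal from cell pellet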
T2 sequence (P10520 whole entry): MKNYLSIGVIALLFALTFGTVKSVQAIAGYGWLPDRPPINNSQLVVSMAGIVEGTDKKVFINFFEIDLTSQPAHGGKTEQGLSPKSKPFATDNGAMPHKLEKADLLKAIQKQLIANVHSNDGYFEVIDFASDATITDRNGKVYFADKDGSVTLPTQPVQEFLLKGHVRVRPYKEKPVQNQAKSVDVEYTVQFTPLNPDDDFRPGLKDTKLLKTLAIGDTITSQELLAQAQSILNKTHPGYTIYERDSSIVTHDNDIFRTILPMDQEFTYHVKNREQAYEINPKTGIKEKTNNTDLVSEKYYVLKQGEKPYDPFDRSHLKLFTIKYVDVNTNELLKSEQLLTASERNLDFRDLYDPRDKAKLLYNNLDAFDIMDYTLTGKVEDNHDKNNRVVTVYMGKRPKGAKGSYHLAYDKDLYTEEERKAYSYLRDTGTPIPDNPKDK

[4] = inhibitors of intracellular T. cruzi replication, confirmation, NIH3T3 host cells, beta-gal luminescence (AID 2044); format: functional, cell-based;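 note: intracellular parasites grown in NIH/3T3 mouse fibroblasts as host cells; luminescent beta-galactosidase reporter signal from transgenic T. cruzi replicating inside host cells; inhibitors lower the luminescence signal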
[5] = cytotoxicity toward NIH3T3 fibroblasts, dose response, counter-screen, cell-based, ATP luminescence, mouse fibroblasts (AID 2010); format: functional;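 note: cells exposed to compound for about 90 hours before reading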
Streptococcus = test: Group A Streptococcus viability loss, dose response, counter-screen for streptokinase expression inhibitor project, luminescence, BacTiterGlo (AID 1915); format: functional, organism-based;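 note: potency for reduction of bacterial viability or growth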
Nonstructural protein 1 = Nonstructural protein 1 (Influenza A virus, UniProt Q194T2); format: functional, Influenza A virus (A/California/07/2009(H1N1))
[6] = target: T3, Replicative DNA helicase DnaB (Mycobacterium tuberculosis, UniProt P9WMR3); test: DnaB intein splicing inhibitors, dose response, biochemical, cell-free fluorescence (AID 449749); format: functional
T3 sequence (P9WMR3 whole entry): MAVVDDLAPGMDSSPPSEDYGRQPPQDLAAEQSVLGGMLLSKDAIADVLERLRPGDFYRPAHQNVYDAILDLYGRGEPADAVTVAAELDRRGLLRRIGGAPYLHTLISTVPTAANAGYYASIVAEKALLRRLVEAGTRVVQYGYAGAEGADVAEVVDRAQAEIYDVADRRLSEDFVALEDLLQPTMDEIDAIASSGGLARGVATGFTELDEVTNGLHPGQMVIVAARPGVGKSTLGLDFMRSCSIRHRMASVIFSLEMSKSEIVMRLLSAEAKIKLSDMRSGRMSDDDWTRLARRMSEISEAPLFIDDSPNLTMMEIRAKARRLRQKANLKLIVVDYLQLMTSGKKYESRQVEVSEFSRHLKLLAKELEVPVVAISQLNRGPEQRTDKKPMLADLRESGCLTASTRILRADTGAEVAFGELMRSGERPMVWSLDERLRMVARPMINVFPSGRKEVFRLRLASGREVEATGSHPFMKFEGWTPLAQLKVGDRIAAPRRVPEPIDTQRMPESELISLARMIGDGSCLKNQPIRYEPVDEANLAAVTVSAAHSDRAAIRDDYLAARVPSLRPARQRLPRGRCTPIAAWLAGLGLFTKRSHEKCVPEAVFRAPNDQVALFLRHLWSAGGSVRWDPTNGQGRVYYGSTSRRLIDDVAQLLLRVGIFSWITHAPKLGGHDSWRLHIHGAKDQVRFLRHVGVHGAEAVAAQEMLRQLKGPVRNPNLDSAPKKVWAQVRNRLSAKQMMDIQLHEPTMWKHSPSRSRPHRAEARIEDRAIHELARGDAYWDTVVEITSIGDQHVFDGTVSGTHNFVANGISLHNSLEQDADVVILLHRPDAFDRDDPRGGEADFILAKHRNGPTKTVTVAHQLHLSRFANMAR

Protein RecA = target: T4, Protein RecA (Mycobacterium tuberculosis, UniProt P9WHJ3); test: Fluorescence Cell-Free Homogeneous Dose Retest to Identify Inhibitors of RecA-Intein Splicing Activity. [Related pubchem assays (depositor defined):AID2097, AID2223, AID489010, AID492950]; format: functional
T4 sequence (P9WHJ3 whole entry): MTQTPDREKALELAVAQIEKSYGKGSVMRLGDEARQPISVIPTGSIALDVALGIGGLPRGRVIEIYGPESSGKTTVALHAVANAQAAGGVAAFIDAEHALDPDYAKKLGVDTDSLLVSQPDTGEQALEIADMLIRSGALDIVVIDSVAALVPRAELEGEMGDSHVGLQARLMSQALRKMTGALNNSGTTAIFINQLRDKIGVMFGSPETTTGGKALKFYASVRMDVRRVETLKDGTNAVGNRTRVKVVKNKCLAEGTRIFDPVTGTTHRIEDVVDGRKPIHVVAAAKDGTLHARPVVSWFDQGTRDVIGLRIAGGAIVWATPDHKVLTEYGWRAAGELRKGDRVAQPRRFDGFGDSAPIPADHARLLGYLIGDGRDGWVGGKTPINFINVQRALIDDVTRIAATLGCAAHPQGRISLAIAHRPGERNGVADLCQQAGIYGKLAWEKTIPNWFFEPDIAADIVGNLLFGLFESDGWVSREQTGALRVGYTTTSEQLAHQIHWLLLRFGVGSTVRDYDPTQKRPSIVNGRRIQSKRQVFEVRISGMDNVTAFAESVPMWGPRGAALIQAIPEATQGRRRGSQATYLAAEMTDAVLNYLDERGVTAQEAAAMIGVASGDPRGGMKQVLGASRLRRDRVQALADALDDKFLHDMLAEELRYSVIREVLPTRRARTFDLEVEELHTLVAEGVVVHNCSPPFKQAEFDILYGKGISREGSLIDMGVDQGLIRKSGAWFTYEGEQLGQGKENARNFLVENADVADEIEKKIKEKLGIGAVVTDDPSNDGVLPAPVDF

[7] = intracellular Trypanosoma cruzi inhibitors in host cells – cell-based, plate reader, cherry-pick samples, set 3, dose response (AID 651818); format: functional;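 note: compounds incubated with infected cells for about four days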
[8] = inhibitors of HIV Env-driven cell fusion, dose response, cherry-pick (AID 652057); format: functional, cell-based
[9] = ZM109 Env clade C HIV-1 fusion inhibitors, dose response, HeLa effector, CEM target cells, luciferase, cherry-pick (AID 652058); format: functional, cell-based
[10] = inhibitors of clade B AD8 Env fusion, dose response, cell-based, cherry-pick (AID 652062); format: functional;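 note: luciferase signal from cell-cell fusion driven by HIV-1 clade B AD8 Env; potency is for inhibitors of fusion seen as a drop in luminescence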
[11] = Luminescence Cell-Based Dose Retest to Confirm Inhibitors of Cancer Stem Cells. [Related pubchem assays (depositor defined):AID2717, AID2721]; format: functional; details: Homo sapiens
[12] = target: T5, Ubiquitin-conjugating enzyme E2 N (Homo sapiens, UniProt P61088); format: functional;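 note: Dose-response confirmation in a TR-FRET assay detecting UBC13-driven polyubiquitin chain formation, inhibition measured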
T5 sequence (P61088 whole entry): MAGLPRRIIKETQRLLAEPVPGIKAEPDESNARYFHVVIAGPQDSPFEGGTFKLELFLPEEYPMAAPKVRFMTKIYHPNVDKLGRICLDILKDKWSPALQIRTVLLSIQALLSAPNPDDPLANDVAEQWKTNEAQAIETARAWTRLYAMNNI

[13] = target: T6, DNA repair protein RAD52 homolog (Homo sapiens, UniProt P43351); format: functional, biochemical
T6 sequence (P43351 whole entry): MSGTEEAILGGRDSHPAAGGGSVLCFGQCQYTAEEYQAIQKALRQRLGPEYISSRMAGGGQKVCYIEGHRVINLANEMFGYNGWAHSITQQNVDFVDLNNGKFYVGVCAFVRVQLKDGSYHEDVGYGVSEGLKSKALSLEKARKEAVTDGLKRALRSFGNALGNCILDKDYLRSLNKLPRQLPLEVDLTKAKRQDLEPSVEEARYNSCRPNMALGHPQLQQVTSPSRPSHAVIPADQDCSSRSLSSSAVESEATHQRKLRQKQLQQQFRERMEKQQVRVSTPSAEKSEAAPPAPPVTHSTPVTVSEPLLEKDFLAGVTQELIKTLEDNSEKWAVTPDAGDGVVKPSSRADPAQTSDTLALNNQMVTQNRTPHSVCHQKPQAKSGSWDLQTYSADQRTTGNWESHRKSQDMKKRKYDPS

[14] = LGR2 antagonists, dose response, cell-based, HEK293, CRE-luciferase reporter, cherry pick, set 2 (AID 743343); format: functional;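 note: transfected cells were stimulated with diluted bursicon conditioned medium after compound addition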
[15] = MC4R antagonists, dose response, counter-screen for LGR2 antagonist project, cell-based, plate reader, cherry pick (AID 743444); format: functional;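 note: transfected HEK 293 cells stimulated with alpha-MSH peptide; potency of inhibitors of the alpha-MSH evoked signal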
INS1 = test: beta cell apoptosis inhibitors, cytokine rescue, dose response, luminescence, retest (AID 449756); format: functional, cell-based; details: Rattus norvegicus;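 note: cell death triggered by IL-1 beta plus TNF-alpha plus IFN-gamma mixture; protective hits raise ATP signal compared with cytokine alone wells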
[16] = Shn3 3'UTR reporter inhibitors, dose response, cell-based, Clone20 osteoblasts, firefly luciferase, cherry-picked (AID 624132); format: functional;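 note: firefly luciferase luminescence from reporter carrying the Shn3 3'UTR in osteoblasts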
[17] = control 3'UTR Renilla luciferase suppression, dose response, counter-screen for Shn3 inhibitor project, cell-based, Clone20-Shn3RL, cherry-picked (AID 624133); format: functional

Sequence of Ras and Rab interactor 1/Tyrosine-protein kinase ABL1 (P00519 whole entry): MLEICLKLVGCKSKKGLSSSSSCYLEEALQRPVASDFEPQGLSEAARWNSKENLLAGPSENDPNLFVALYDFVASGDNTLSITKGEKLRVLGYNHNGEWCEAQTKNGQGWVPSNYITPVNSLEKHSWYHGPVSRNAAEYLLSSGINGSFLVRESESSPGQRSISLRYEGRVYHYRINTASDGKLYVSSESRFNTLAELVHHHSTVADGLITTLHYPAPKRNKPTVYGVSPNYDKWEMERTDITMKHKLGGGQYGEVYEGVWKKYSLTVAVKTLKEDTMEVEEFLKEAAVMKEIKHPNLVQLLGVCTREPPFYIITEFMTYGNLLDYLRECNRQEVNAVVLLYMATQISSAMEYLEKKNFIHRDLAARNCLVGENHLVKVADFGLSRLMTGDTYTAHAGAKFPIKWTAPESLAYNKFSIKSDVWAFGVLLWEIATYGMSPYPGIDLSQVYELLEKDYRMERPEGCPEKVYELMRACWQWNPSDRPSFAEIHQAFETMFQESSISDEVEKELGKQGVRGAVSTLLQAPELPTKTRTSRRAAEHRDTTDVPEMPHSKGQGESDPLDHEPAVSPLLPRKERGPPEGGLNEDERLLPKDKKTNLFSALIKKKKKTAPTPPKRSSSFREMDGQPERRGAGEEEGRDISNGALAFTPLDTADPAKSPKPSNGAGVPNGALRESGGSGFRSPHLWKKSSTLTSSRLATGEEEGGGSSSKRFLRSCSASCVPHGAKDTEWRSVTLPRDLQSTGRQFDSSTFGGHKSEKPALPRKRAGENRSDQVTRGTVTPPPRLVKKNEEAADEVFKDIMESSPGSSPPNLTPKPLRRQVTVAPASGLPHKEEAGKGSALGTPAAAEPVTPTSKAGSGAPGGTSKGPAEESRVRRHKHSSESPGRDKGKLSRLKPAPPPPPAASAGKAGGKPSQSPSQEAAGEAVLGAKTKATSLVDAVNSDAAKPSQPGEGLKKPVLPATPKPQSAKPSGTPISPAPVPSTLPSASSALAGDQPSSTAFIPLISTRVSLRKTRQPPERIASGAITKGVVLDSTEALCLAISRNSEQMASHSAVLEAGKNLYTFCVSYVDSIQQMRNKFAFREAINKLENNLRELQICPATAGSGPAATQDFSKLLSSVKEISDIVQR
Sequence of Ras and Rab interactor 1/Tyrosine-protein kinase ABL1 (Q13671 whole entry): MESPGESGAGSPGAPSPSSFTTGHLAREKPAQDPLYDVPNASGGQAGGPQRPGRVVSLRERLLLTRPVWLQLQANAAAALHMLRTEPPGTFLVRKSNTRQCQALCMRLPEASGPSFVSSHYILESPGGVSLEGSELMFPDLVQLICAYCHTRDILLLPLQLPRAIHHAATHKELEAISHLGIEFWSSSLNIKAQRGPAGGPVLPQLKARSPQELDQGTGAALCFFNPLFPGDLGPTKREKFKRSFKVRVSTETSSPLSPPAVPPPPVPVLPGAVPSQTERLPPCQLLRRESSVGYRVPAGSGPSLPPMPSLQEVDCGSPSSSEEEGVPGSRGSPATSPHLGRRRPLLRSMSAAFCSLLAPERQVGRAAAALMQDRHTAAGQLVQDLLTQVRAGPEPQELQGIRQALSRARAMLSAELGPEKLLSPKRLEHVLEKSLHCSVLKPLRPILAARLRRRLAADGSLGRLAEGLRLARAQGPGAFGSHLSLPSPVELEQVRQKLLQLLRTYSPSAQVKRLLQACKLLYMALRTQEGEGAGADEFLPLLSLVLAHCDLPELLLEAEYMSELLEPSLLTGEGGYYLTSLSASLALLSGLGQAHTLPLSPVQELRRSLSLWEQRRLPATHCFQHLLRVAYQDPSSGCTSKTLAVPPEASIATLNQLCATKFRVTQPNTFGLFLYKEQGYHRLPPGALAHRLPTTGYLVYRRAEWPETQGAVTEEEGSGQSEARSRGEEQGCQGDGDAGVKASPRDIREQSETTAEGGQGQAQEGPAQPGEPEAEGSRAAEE
Sequence of Nonstructural protein 1 (Q194T2 whole entry): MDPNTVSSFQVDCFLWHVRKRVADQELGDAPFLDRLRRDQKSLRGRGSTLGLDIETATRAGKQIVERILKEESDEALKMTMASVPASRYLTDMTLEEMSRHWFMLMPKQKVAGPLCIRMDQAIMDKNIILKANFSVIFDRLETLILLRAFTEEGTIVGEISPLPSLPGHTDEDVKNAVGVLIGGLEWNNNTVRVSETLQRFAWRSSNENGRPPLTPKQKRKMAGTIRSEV

COc1ccc2nc(NC(=O)CCc3nc(C4=CCN(C)CC4)no3)sc2c1
IC50 [1]: 1.4 µM (active)

O=C1C=C[C@@H](COC2OC(CO)C(O)C(O)C2O)O1 (stereo partly specified)
GI50 (P388/ADR): 0.343 µM (active)
GI50 (SN12K1): 13.2 µM (inactive)

CC(=O)Nc1ccc(S(=O)(=O)NC2=NC(=O)/C(=C\c3ccco3)S2)cc1
IC50 [2]: 7.44 µM (active)

O=C1N(c2cccc(Cl)c2)C(c2ccccc2)N2CCCN12 (stereo unspecified)
IC50 [1]: 22.2 µM (inactive)

Cc1ccc(Cl)cc1N1CCN(C(=O)CSc2ccsc2[N+](=O)[O-])CC1
IC50 [2]: 6.96 µM (active)

O=C(Cc1ccc(S(=O)(=O)N2CCOCC2)s1)NC1CCCCC1
IC50 [2]: 7.34 µM (active)

CCOC(=O)C1=C(C)n2c(s/c(=C/c3cccc([N+](=O)[O-])c3)c2=O)=NC1c1ccc(O)c(OC)c1 (stereo unspecified)
EC50 [3]: 8.14 µM (active)
EC50 (Streptokinase A): 48.8 µM (active)
EC50 [4]: 1.11 µM (active)
EC50 [5]: > 60 µM (not active)
EC50 (Streptococcus): > 150 µM (not active)
IC50 (Nonstructural protein 1): > 100 µM (active)
AC50 [6]: 13.1 µM (active)
EC50 (Protein RecA): 1.29 µM (active)

CN(CCc1ccccc1)C(=O)c1ccc(NC(=O)Cc2ccc(NC(=O)C3CCN(C(=O)c4ccccc4)CC3)cc2)cc1
IC50 [1]: 3.91 µM (active)

O=C(COC(=O)c1cccc(S(=O)(=O)N2CCN(c3ccccc3)CC2)c1)NCc1ccco1
IC50 [2]: 4.41 µM (active)

CCN(CC)c1ccc(/C=N/NC(=O)CCCCCCC(=O)Nc2ccccc2O)c(O)c1
AC50 [7]: 1.94 µM (active)

C[C@H]1CN([C@@H](C)CO)C(=O)Cc2cc(NC(=O)Cc3ccccc3)ccc2O[C@H]1CN(C)S(=O)(=O)c1ccccc1
AC50 [8]: 1.62 µM (active)
AC50 [9]: 1.6 µM (active)
AC50 [10]: 7.88 µM (active)

C[C@@H]1CCCCO[C@@H](CN(C)C(=O)Nc2ccc(C(F)(F)F)cc2)[C@@H](C)CN([C@H](C)CO)C(=O)c2cc(NC(=O)NC3CCCCC3)ccc2O1
AC50 [7]: 5.12 µM (active)

CCN1CCN(CCCNC(=O)c2ccc(/C=C3/Sc4ccccc4N(Cc4ccccc4F)C3=O)cc2)CC1
EC50 [4]: 1.07 µM (active)
EC50 [5]: 22.8 µM (active)
AC50 [11]: 2.41 µM (active)
IC50 [12]: > 20 µM (inactive)
AC50 [13]: 8.67 µM (active)

COC(=O)c1c(C)nc(C)c2c(=O)oc3ccccc3c12
IC50 [1]: > 73.5 µM (inactive)

C[C@H](CO)N1C[C@H](C)[C@H](CN(C)C(=O)Nc2ccccc2)Oc2c(NC(=O)c3ccncc3)cccc2C1=O
AC50 [7]: 2.12 µM (active)

NC(=O)C(CC(=O)O)NC(=O)[C@@H]1CCCNc2c(I)cc([N+](=O)[O-])cc2C(=O)N[C@@H](CO)C(=O)N[C@@H](Cc2ccc(O)cc2)C(=O)N1 (stereo partly specified)
IC50 [2]: 19.7 µM (active)

COc1ccc(-c2cc(NC=O)c3ncc(-c4cccc(C(=O)NCCN(C)C)c4)n3c2)c(OC)c1
AC50 [13]: 2.55 µM (active)

C[C@H](CO)N1C[C@H](C)[C@H](CN(C)Cc2ccc(-c3ccccc3)cc2)Oc2ccc(NC(=O)CCCCCC(=O)Nc3ccccc3N)cc2CC1=O
AC50 [7]: 3.39 µM (active)

C[C@H](CO)N1C[C@H](C)[C@H](CN(C)S(=O)(=O)c2ccccc2)Oc2ccc(NC(=O)Cc3cn(C)c4ccccc34)cc2CC1=O
AC50 [8]: < 0.26 µM (active)
AC50 [9]: 0.816 µM (active)
AC50 [10]: 12 µM (active)

C=CCNc1nc(-c2cc3ccccc3o2)cs1
AC50 [14]: 13.9 µM (active)
AC50 [15]: 15.2 µM (active)

O=C1N(c2cccc(Cl)c2)C(c2ccc(Cl)cc2)N2CCCN12 (stereo unspecified)
IC50 [1]: 31.8 µM (inactive)

COCCn1c(SCC(=O)/C=C2\N(C)c3ccccc3C2(C)C)nnc1-c1ccncc1
AC50 (INS1): 6.34 µM (active)
AC50 [16]: 2.65 µM (active)
AC50 [17]: 5.61 µM (active)
